Data on 23 compounds can be found in patent US10221173B2, “Chemical compounds” (AstraZeneca AB, priority 2017, dated 2019).

The nature of data set [1]: Thermodynamic solubility (shake-flask). Format: physicochemical. The settings on record: aqueous phosphate buffer, 25 °C, pH 7.4, aqueous buffer, thermodynamic from solid, phosphate buffer pH 7.4, 24 hours.
Experimental: The thermodynamic solubility of a research compound is measured under standard conditions. It is a shake-flask approach that uses 10 mM DMSO solutions which are supplied from the Compound Managements liquid store and is a high throughput method. The dried compounds are equilibrated in an aqueous phosphate buffer (pH 7.4) for 24 hours at 25° C., the portion with the dissolved compound is then separated from the remains. The solutions are analyzed and quantified using UPLC/MS/MS, QC-samples are incorporated in each assay-run to ensure the quality of the assay.
Data set [2] deals with recombinant human Estrogen Receptor alpha ligand binding domain (ER alpha-LBD (GST)) (Homo sapiens (Human), UniProt P03372). Kind of data set: ERα binding assay (LanthaScreen TR-FRET competition).
Data set [3] concerns the target Estrogen Receptor (ERα) in MCF-7 cells (Homo sapiens (Human), UniProt P03372). Kind of data set: MCF-7 ER down-regulation assay (immuno-fluorescence). The class given is cell-based.

≈ marks a conversion by molar mass, not a printed value.

In general, solubility refers to how much of the substance goes into solution per volume. As usually defined, the IC50 is the midpoint of a concentration-inhibition curve.

Chain of Estrogen Receptor (ERα) in MCF-7 cells (P03372 whole entry): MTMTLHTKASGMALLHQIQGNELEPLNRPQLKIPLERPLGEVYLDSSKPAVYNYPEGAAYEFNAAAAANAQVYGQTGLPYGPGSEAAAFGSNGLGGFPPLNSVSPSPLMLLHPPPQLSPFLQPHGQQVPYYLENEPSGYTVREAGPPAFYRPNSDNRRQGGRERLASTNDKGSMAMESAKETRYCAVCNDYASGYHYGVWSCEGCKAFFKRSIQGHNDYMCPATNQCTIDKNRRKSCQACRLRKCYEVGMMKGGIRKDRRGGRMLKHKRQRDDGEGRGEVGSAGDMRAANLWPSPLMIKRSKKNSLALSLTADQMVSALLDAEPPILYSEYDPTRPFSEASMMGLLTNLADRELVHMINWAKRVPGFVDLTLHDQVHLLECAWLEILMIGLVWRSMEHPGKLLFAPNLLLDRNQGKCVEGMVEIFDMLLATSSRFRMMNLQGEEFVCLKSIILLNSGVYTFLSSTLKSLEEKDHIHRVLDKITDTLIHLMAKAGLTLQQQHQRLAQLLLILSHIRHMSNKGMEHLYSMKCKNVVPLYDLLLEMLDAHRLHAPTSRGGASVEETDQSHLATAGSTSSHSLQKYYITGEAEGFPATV
Chain of recombinant human Estrogen Receptor alpha ligand binding domain (ER alpha-LBD (GST)) (P03372 307-554): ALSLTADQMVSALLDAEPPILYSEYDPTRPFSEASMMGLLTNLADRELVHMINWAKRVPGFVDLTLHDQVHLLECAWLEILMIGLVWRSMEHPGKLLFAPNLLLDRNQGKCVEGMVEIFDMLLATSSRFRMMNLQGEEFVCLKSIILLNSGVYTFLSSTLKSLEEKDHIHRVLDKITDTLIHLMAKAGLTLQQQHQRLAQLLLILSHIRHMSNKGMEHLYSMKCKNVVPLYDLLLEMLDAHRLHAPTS

Consider `C[C@@H]1Cc2c([nH]c3ccccc23)[C@@H](c2cccc(NCCNCCCF)c2)N1CC1(F)COC1` [Example 2, N-1-(3-((1R,3R)-2-((3-fluorooxetan-3-yl)methyl)-3-methyl-2,3,4,9-tetrahydro-1H-pyrido[3,4-b]indol-1-yl)phenyl)-N-2-(3-fluoropropyl)ethane-1,2-diamine], for which the solubility at 24 h in data set [1] is 895 µM (≈ 419 µg/mL).
Compound `C[C@@H]1Cc2c([nH]c3ccccc23)[C@@H](c2cccc(N(C)CCNCCCF)c2)N1CC1(F)COC1` [Example 3, N-1-(3-((1R,3R)-2-((3-fluorooxetan-3-yl)methyl)-3-methyl-2,3,4,9-tetrahydro-1H-pyrido[3,4-b]indol-1-yl)phenyl)-N-2-(3-fluoropropyl)-N-1-methylethane-1,2-diamine] showed a solubility at 24 h in data set [1] of 712 µM (≈ 344 µg/mL).
With `Cc1ccc(OCCNCCCF)cc1[C@@H]1c2[nH]c3ccccc3c2C[C@@H](C)N1CC(F)(F)F` [Example 17, 3-fluoro-N-(2-(4-methyl-3-((1R,3R)-3-methyl-2-(2,2,2-trifluoroethyl)-2,3,4,9-tetrahydro-1H-pyrido[3,4-b]indol-1-yl)phenoxy)ethyl)propan-1-amine], the solubility at 24 h in data set [1] amounted to 68 µM (≈ 32.5 µg/mL).
In data set [1], `Cc1cc(OCCNCCCF)cc([C@@H]2c3[nH]c4ccccc4c3C[C@@H](C)N2CC(F)(F)F)c1` [Example 18, 3-fluoro-N-(2-(3-methyl-5-((1R,3R)-3-methyl-2-(2,2,2-trifluoroethyl)-2,3,4,9-tetrahydro-1H-pyrido[3,4-b]indol-1-yl)phenoxy)ethyl)propan-1-amine] yielded a solubility at 24 h of 27 µM (≈ 12.9 µg/mL).
In the case of `Cc1ccc([C@@H]2c3[nH]c4ccccc4c3C[C@@H](C)N2CC(F)(F)F)cc1OCCNCCCF` [Example 19, 3-fluoro-N-(2-(2-methyl-5-((1R,3R)-3-methyl-2-(2,2,2-trifluoroethyl)-2,3,4,9-tetrahydro-1H-pyrido[3,4-b]indol-1-yl)phenoxy)ethyl)propan-1-amine], the solubility at 24 h in data set [1] amounted to 5 µM (≈ 2.39 µg/mL).
Take `C[C@@H]1Cc2c([nH]c3ccccc23)[C@@H](c2cccc(OCCNCCCF)c2F)N1CC(F)(F)F` [Example 24, 3-fluoro-N-(2-(2-fluoro-3-((1R,3R)-3-methyl-2-(2,2,2-trifluoroethyl)-2,3,4,9-tetrahydro-1H-pyrido[3,4-b]indol-1-yl)phenoxy)ethyl)propan-1-amine]: the solubility at 24 h in data set [1] was determined as 88 µM (≈ 42.4 µg/mL).
`Cc1c(OCCNCCCF)ccc(F)c1[C@@H]1c2[nH]c3ccccc3c2C[C@@H](C)N1CC(F)(F)F` [Example 33, 3-fluoro-N-(2-(4-fluoro-2-methyl-3-((1R,3R)-3-methyl-2-(2,2,2-trifluoroethyl)-2,3,4,9-tetrahydro-1H-pyrido[3,4-b]indol-1-yl)phenoxy)ethyl)propan-1-amine] had a solubility at 24 h in data set [1] of 8 µM (≈ 3.96 µg/mL).
Regarding `Cc1c(OCCNCCCF)ccc(F)c1[C@@H]1c2[nH]c3ccccc3c2C[C@@H](C)N1CC(F)(F)CO` [Example 45, 2,2-difluoro-3-((1R,3R)-1-(6-fluoro-3-(2-((3-fluoropropyl)amino)ethoxy)-2-methylphenyl)-3-methyl-1,3,4,9-tetrahydro-2H-pyrido[3,4-b]indol-2-yl)propan-1-ol], the solubility at 24 h in data set [1] stood at 227 µM (≈ 115 µg/mL).
Regarding `COc1ccc(OCCNCCCF)cc1[C@@H]1c2[nH]c3ccccc3c2C[C@@H](C)N1CC1(F)CC1` [Example 52, 3-fluoro-N-(2-(3-((1R,3R)-2-((1-fluorocyclopropyl)methyl)-3-methyl-2,3,4,9-tetrahydro-1H-pyrido[3,4-b]indol-1-yl)-4-methoxyphenoxy)ethyl)propan-1-amine], the IC50 in data set [2] is 0.58 nM; in data set [3], 0.34 nM.
As to `C[C@@H]1Cc2c([nH]c3ccc(F)cc23)[C@@H](c2c(F)ccc(OCCNCCCF)c2F)N1C[C@H](C)C(=O)O` [Example 59, (S)-3-((1R,3R)-1-(2,6-difluoro-3-(2-((3-fluoropropyl)amino)ethoxy)phenyl)-6-fluoro-3-methyl-1,3,4,9-tetrahydro-2H-pyrido[3,4-b]indol-2-yl)-2-methylpropanoic acid], the IC50 in data set [2] worked out at 2.3 nM; in data set [3], 3.1 nM.
Turning to `Cc1c(OCCNCCCF)ccc(F)c1[C@@H]1c2[nH]c3ccccc3c2C[C@@H](C)N1CC(C)(C)C(=O)O` [Example 119, 3-((1R,3R)-1-(6-fluoro-3-(2-((3-fluoropropyl)amino)ethoxy)-2-methylphenyl)-3-methyl-1,3,4,9-tetrahydro-2H-pyrido[3,4-b]indol-2-yl)-2,2-dimethyl-propanoic acid], the figures for the IC50 in data set [2] and in data set [3] were 6.9 nM and 1 nM, respectively.
As for `Cc1c(OCCNCCCF)ccc(F)c1[C@@H]1c2[nH]c3ccccc3c2C[C@@H](C)N1CC1(C(=O)O)CCC1` [Example 120], the 50% inhibitory concentration (IC50) is 11 nM in data set [2] and 2.5 nM in data set [3].
On the same counts, the results for `CC[C@@H]1Cc2c([nH]c3ccccc23)[C@@H](c2c(F)ccc(OCCNCCCF)c2C)N1C[C@H](C)C(=O)O` [Example 122, (S)-3-((1R,3R)-3-ethyl-1-(6-fluoro-3-(2-((3-fluoropropyl)amino)ethoxy)-2-methylphenyl)-1,3,4,9-tetrahydro-2H-pyrido[3,4-b]indol-2-yl)-2-methylpropanoic acid] are 4.9 nM and 0.39 nM.
For `C[C@@H]1Cc2c([nH]c3ccccc23)[C@@H](c2c(F)ccc(OCCNCCCF)c2C(F)F)N1C[C@H](C)C(=O)O` [Example 125, (S)-3-((1R,3R)-1-(2-(difluoromethyl)-6-fluoro-3-(2-((3-fluoropropyl)amino)ethoxy)phenyl)-3-methyl-1,3,4,9-tetrahydro-2H-pyrido[3,4-b]indol-2-yl)-2-methylpropanoic acid], the half-maximal inhibitory concentration (IC50) was determined as 1.3 nM in data set [2] and 0.62 nM in data set [3].
Consider `C[C@@H]1Cc2c([nH]c3ccccc23)[C@@H](c2c(F)cnc(OCCNCCCF)c2Cl)N1C[C@H](C)C(=O)O` [Example 133, (S)-3-((1R,3R)-1-(3-chloro-5-fluoro-2-(2-((3-fluoropropyl)amino)ethoxy)pyridin-4-yl)-3-methyl-1,3,4,9-tetrahydro-2H-pyrido[3,4-b]indol-2-yl)-2-methylpropanoic acid], for which the half-inhibitory concentration (IC50) in data set [2] and in data set [3] was 1.5 nM each time.
Turning to `C[C@@H](CN1[C@H](c2c(F)ccc(OCCNCCCF)c2Cl)c2[nH]c3ccccc3c2C[C@H]1C(F)F)C(=O)O` [Example 138, (S)-3-((1R,3S)-1-(2-chloro-6-fluoro-3-(2-((3-fluoropropyl)amino)ethoxy)phenyl)-3-(difluoromethyl)-1,3,4,9-tetrahydro-2H-pyrido[3,4-b]indol-2-yl)-2-methylpropanoic acid], the IC50 in data set [2] and in data set [3] was 1.6 nM in each case.
For `C[C@@H](CN1[C@H](c2c(F)cnc(OCCNCCCF)c2Cl)c2[nH]c3ccccc3c2C[C@H]1C(F)F)C(=O)O` [Example 139, (S)-3-((1R,3S)-1-(3-chloro-5-fluoro-2-(2-((3-fluoropropyl)amino)ethoxy)pyridin-4-yl)-3-(difluoromethyl)-1,3,4,9-tetrahydro-2H-pyrido[3,4-b]indol-2-yl)-2-methylpropanoic acid], the values for the IC50 in data set [2] and in data set [3] were 1.5 nM and 0.9 nM, respectively.
Consider `C[C@@H]1Cc2c([nH]c3ccccc23)[C@@H](c2c(F)ccc(OCCN(C)CCCF)c2F)N1C[C@H](C)C(=O)O` [Example 144, (S)-3-((1R,3R)-1-(2,6-difluoro-3-(2-((3-fluoropropyl)(methyl)amino)ethoxy)phenyl)-3-methyl-1,3,4,9-tetrahydro-2H-pyrido[3,4-b]indol-2-yl)-2-methylpropanoic acid], for which the 50% inhibitory concentration (IC50) in data set [2] amounted to 5.6 nM; in data set [3], 7.9 nM. In addition, in data set [3] (maximum downregulation), the “% downregulation (in brackets)” value is reported as 88%.
For the compound `Cc1c(OCCN(C)CCCF)ccc(F)c1[C@@H]1c2[nH]c3ccc(F)cc3c2C[C@@H](C)N1C[C@H](C)C(=O)O` [Example 146, (S)-3-((1R,3R)-6-fluoro-1-(6-fluoro-3-(2-((3-fluoropropyl)(methyl)amino)ethoxy)-2-methylphenyl)-3-methyl-1,3,4,9-tetrahydro-2H-pyrido[3,4-b]indol-2-yl)-2-methylpropanoic acid], the IC50 is 1.1 nM in data set [2] and 0.4 nM in data set [3].
Consider `Cc1c(OCCN(C)CCCF)ncc(F)c1[C@@H]1c2[nH]c3ccc(F)cc3c2C[C@@H](C)N1C[C@@H](C)C(=O)O` [Example 155, (2R)-3-[(1R,3R)-6-fluoro-1-[5-fluoro-2-[2-[3-fluoropropyl(methyl)amino]ethoxy]-3-methyl-4-pyridyl]-3-methyl-1,3,4,9-tetrahydropyrido[3,4-b]indol-2-yl]-2-methyl-propanoic acid], for which the IC50 came to 1 nM in data set [2] and 0.21 nM in data set [3].
Consider `Cc1c(OCCN(C)CCCF)ncc(F)c1[C@@H]1c2[nH]c3ccc(F)cc3c2C[C@@H](C)N1CCC(=O)O` [Example 156, 3-((1R,3R)-6-fluoro-1-(5-fluoro-2-(2-((3-fluoropropyl)(methyl)amino)ethoxy)-3-methylpyridin-4-yl)-3-methyl-1,3,4,9-tetrahydro-2H-pyrido[3,4-b]indol-2-yl)propanoic acid], for which the IC50 in data set [2] was 1.2 nM; in data set [3] it was 1.4 nM.
Regarding `Cc1c(OCCN(C)CCCF)ncc(F)c1[C@@H]1c2[nH]c3ccccc3c2C[C@@H](C)N1CCC(=O)O` [Example 157, 3-((1R,3R)-1-(5-fluoro-2-(2-((3-fluoropropyl)(methyl)amino)ethoxy)-3-methylpyridin-4-yl)-3-methyl-1,3,4,9-tetrahydro-2H-pyrido[3,4-b]indol-2-yl)propanoic acid], the IC50 in data set [2] was 1.8 nM; in data set [3] it was 1 nM.
Take `Cc1c(OCCN(C)CCCF)ccc(F)c1[C@@H]1c2[nH]c3ccc(F)cc3c2C[C@@H](C)N1C[C@@H](C)C(=O)O` [Example 160, (R)-3-((1R,3R)-6-fluoro-1-(6-fluoro-3-(2-((3-fluoropropyl)(methyl)amino)ethoxy)-2-methylphenyl)-3-methyl-1,3,4,9-tetrahydro-2H-pyrido[3,4-b]indol-2-yl)-2-methylpropanoic acid]: the IC50 turned out to be 1.9 nM in data set [2] and 0.36 nM in data set [3].
